This note sets out measurements from publication PMC8550792, “Evolution of kinase polypharmacology across HSP90 drug discovery” (Cell Chemical Biology, 2021).

What all share (test): biochemical
What all share (assay type): biochemical

For assay [1], the target named is T1, 382 unique human kinases (Homo sapiens, UniProt Q13131).
T1 construct: purchased Reaction Biology (HotSpot contract assay)
Conditions: for remaining activity at 10 µM: read-out: % Enzyme Activity (relative to DMSO controls).

In assay [2] the target is T2, 382 unique human kinases (Homo sapiens, UniProt Q00537).
T2 construct: purchased Reaction Biology (HotSpot contract assay)
Conditions: kinase CDK17/cyclin Y (PCTK2), compound 10 uM; for remaining activity at 10 µM: read-out: % Enzyme Activity (relative to DMSO controls).

Assay [3] has as its target T3, 382 unique human kinases (Homo sapiens, UniProt Q15831).
T3 construct: purchased Reaction Biology (HotSpot contract assay)
T3 sequence (Q15831 1-433): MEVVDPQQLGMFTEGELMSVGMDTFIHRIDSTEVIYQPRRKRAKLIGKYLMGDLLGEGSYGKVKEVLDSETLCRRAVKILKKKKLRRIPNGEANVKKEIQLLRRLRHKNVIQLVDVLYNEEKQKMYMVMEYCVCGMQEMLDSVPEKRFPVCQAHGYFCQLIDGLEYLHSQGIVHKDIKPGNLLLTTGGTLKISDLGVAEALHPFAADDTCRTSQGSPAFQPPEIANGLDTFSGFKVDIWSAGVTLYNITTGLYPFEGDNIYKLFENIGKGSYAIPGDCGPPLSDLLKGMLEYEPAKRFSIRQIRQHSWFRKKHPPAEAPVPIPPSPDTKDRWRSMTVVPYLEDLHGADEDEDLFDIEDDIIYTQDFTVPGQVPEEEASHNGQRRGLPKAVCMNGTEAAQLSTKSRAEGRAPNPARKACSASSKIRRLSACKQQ
Conditions: LKB1, compound at 10 uM, duplicate values; for remaining activity at 10 µM: read-out: % Enzyme Activity (relative to DMSO controls).

The target of assay [4] is T4, 382 unique human kinases (Homo sapiens, UniProt Q9BQI3).
T4 construct: purchased Reaction Biology (HotSpot contract assay)
Particulars: EIF2AK1, compound at 10 uM, duplicate values; for remaining activity at 10 µM: read-out: % Enzyme Activity (relative to DMSO controls).

Assay [5] concerns the target T5, 382 unique human kinases (Homo sapiens, UniProt P15735).
T5 construct: purchased Reaction Biology (HotSpot contract assay)
T5 sequence (P15735 1-406): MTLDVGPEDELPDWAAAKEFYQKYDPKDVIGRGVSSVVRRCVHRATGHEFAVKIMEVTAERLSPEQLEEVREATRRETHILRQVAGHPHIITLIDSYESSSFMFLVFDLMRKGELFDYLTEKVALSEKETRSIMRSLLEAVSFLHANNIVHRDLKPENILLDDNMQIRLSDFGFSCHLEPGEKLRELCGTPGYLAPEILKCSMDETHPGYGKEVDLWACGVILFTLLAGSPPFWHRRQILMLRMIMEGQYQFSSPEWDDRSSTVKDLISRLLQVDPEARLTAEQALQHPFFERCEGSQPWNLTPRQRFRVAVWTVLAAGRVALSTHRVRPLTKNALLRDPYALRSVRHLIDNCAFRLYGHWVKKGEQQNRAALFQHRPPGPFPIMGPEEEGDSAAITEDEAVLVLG
Particulars: PHKg2, compound at 10 uM, duplicate values; for remaining activity at 10 µM: read-out: % Enzyme Activity (relative to DMSO controls).

Assay [6] concerns the target T6, 382 unique human kinases (Homo sapiens, UniProt P29376).
T6 construct: purchased Reaction Biology (HotSpot contract assay)
Particulars: TYK1/LTK, 10 uM; for remaining activity at 10 µM: read-out: % Enzyme Activity (relative to DMSO controls).

Assay [7] deals with T7, 382 unique human kinases (Homo sapiens, UniProt P23458).
T7 construct: purchased Reaction Biology (HotSpot contract assay)
Particulars: JAK1, 10 uM; for remaining activity at 10 µM: read-out: % Enzyme Activity (relative to DMSO controls).

The target of assay [8] is T8, 382 unique human kinases (Homo sapiens, UniProt Q9UQM7).
T8 construct: purchased Reaction Biology (HotSpot contract assay)
Particulars: CAMK2a, 10 uM; for remaining activity at 10 µM: read-out: % Enzyme Activity (relative to DMSO controls).

Assay [9] has as its target T9, 382 unique human kinases (Homo sapiens, UniProt P07947).
T9 construct: purchased Reaction Biology (HotSpot contract assay)
Particulars: YES/YES1, [ATP] 50 µM.

Assay [10] addresses T10, 382 unique human kinases (Homo sapiens, UniProt Q9UBE8).
T10 construct: purchased Reaction Biology (HotSpot contract assay)
T10 sequence (Q9UBE8 1-527): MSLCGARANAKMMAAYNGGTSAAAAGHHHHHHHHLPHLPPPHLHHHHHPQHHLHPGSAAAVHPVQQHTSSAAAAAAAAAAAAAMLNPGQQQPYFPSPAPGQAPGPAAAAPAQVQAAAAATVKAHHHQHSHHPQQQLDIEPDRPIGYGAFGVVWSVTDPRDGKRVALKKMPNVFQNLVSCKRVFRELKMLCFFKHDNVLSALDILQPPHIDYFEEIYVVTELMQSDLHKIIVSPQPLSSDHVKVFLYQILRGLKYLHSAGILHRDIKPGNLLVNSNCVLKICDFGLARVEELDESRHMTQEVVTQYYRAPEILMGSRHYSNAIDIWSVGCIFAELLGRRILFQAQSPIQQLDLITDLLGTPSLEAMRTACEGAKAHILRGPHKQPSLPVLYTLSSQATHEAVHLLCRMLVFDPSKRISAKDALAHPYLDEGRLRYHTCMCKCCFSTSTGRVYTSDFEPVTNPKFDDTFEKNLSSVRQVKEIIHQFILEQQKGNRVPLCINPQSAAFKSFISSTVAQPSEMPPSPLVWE
Particulars: NLK, 10 uM; for remaining activity at 10 µM: read-out: % Enzyme Activity (relative to DMSO controls).

For assay [11], the target named is T11, 382 unique human kinases (Homo sapiens, UniProt Q9P289).
T11 construct: purchased Reaction Biology (HotSpot contract assay)
Conditions: MST4, 10 uM; for remaining activity at 10 µM: read-out: % Enzyme Activity (relative to DMSO controls).

Assay [12] addresses T12, 382 unique human kinases (Homo sapiens, UniProt P00519, Q252H).
T12 construct: purchased Reaction Biology (HotSpot contract assay)
Particulars: ABL1 (Q252H), [ATP] 20 µM, compound 10 uM; for remaining activity at 10 µM: read-out: % Enzyme Activity (relative to DMSO controls).

The target of assay [13] is T13, 382 unique human kinases (Homo sapiens, UniProt Q06187, C481S).
T13 construct: purchased Reaction Biology (HotSpot contract assay)
Particulars: BTK (C481S), [ATP] 15 µM, compound 10 uM; for remaining activity at 10 µM: read-out: % Enzyme Activity (relative to DMSO controls).

Assay [14] addresses T14, 382 unique human kinases (Homo sapiens, UniProt Q9UM73, G1269A).
T14 construct: purchased Reaction Biology (HotSpot contract assay)
Particulars: ALK (G1269A), [ATP] 2.5 µM, compound 10 uM; for remaining activity at 10 µM: read-out: % Enzyme Activity (relative to DMSO controls).

Where [15] appears, read: kinase AMPK(A1/B1/G3), compound 10 uM.
The mark [16] stands for this setting: compound 10 uM, read-out: % Enzyme Activity (relative to DMSO controls).

Where two headings read alike, the source gives them in different places.

T14 sequence (Q9UM73 19-1620 G1269A): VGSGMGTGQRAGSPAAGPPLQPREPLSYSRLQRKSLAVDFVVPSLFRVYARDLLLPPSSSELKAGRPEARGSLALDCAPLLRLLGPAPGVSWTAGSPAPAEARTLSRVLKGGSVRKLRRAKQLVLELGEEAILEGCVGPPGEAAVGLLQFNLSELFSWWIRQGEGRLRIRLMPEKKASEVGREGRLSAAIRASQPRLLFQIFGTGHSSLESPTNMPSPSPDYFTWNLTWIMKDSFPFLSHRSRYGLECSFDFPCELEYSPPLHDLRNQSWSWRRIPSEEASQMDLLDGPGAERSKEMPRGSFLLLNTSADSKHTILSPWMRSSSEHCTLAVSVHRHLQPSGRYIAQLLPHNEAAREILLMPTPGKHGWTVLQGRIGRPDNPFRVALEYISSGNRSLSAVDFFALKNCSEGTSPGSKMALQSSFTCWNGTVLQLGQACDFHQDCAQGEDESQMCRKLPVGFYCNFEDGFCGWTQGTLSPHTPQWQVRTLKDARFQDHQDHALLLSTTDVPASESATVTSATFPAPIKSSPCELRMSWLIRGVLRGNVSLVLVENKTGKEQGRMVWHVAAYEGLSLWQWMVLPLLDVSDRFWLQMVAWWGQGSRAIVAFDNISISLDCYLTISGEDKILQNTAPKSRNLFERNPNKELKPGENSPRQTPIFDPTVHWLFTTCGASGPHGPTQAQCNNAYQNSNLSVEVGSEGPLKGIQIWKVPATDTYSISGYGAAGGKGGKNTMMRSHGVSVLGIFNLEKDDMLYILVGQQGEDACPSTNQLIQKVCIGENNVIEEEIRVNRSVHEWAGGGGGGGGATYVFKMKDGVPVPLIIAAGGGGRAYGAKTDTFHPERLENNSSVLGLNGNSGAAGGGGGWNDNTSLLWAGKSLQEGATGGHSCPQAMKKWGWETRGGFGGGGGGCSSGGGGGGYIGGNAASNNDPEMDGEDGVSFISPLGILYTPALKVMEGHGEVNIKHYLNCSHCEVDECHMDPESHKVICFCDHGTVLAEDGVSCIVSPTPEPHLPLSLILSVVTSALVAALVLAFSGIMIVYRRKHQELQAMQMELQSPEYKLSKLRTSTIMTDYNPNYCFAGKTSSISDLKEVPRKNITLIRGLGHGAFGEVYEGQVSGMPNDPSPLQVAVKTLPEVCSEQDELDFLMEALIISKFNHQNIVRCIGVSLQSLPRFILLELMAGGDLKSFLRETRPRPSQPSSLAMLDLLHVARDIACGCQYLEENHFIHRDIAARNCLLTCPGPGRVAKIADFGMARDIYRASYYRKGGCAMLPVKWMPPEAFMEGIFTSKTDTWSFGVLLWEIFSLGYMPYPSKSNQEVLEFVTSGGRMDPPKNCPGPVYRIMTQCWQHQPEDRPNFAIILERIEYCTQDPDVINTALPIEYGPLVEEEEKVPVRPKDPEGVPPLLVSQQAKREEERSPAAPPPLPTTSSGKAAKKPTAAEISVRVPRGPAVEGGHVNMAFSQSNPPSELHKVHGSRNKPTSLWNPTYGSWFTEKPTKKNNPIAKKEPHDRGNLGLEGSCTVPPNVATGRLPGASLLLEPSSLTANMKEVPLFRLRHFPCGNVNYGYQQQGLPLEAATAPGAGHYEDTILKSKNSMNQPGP
T8 sequence (Q9UQM7 whole entry): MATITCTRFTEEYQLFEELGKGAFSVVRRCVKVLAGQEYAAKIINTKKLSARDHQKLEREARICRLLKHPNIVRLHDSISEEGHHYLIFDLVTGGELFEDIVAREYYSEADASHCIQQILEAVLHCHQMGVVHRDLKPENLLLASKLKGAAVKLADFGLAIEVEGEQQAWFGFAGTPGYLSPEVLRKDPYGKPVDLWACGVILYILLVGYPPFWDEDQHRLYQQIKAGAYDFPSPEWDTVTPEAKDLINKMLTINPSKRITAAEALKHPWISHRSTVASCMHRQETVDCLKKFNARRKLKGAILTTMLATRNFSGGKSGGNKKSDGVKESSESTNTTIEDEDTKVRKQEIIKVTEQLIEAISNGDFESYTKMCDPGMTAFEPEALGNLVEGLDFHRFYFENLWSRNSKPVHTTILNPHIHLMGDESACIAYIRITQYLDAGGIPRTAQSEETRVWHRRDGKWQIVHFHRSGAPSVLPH
T11 sequence (Q9P289 whole entry): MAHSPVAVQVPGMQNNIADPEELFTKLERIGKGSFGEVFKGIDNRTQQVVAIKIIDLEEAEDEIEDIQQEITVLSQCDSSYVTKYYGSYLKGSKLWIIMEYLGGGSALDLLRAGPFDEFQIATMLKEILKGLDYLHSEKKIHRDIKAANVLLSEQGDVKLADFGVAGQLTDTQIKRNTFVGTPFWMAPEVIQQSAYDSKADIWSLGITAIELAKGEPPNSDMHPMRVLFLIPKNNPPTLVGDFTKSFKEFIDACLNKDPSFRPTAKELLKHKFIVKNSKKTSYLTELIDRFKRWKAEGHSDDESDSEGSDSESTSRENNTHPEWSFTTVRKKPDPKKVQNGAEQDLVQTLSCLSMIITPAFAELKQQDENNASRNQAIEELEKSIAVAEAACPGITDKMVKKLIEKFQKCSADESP
T9 sequence (P07947 whole entry): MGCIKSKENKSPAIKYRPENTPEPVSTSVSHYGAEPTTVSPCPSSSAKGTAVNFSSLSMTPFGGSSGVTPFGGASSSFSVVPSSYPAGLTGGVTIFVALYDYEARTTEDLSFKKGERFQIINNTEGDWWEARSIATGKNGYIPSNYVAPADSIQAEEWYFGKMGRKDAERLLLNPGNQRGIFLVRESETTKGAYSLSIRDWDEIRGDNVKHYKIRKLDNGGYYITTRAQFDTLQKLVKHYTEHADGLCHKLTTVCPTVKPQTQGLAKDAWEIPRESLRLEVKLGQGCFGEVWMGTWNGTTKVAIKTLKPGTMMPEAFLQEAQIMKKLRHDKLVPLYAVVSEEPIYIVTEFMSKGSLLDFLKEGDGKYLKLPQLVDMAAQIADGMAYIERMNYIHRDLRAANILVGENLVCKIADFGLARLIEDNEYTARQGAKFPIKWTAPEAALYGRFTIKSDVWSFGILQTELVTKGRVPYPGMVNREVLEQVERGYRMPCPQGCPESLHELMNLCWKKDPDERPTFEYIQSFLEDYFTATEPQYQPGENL
T4 sequence (Q9BQI3 whole entry): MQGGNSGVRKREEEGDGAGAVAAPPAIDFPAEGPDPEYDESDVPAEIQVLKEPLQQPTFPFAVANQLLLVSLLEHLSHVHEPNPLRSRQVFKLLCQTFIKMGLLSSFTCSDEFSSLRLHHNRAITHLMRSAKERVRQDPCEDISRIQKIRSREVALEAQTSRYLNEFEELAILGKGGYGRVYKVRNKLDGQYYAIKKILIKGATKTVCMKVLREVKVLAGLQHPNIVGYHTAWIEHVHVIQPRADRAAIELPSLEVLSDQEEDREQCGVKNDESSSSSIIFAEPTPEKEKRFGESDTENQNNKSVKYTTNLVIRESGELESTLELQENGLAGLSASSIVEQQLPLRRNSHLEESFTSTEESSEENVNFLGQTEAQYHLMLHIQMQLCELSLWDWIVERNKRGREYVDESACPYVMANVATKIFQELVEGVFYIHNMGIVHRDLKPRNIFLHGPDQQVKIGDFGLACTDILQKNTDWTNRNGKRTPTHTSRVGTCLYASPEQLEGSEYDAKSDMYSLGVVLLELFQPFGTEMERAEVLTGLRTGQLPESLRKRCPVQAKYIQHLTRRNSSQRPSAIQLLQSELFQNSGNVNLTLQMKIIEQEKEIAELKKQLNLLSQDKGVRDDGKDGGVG
T6 sequence (P29376 17-864): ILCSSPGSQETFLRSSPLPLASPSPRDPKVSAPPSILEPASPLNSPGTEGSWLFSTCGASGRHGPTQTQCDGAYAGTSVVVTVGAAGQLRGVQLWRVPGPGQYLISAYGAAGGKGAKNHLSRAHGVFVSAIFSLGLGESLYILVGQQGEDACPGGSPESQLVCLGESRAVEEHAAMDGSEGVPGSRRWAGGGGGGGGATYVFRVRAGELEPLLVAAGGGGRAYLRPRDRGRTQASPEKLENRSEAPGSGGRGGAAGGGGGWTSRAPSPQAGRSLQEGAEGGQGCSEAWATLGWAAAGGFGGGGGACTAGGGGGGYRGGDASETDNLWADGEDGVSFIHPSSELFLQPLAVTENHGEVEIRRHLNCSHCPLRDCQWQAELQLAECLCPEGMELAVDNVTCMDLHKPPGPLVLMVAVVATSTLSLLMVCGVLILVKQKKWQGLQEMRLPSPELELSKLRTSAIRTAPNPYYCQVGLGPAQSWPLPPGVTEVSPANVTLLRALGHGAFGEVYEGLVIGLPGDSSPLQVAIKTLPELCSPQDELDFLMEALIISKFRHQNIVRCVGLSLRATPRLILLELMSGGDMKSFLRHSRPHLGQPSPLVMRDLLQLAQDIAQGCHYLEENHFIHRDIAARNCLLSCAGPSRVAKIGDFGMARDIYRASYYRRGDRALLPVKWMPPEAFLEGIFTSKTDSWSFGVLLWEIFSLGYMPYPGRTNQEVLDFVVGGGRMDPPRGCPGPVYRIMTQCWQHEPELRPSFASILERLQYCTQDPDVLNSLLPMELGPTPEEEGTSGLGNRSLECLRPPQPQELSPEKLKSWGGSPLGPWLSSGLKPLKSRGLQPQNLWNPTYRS
T2 sequence (Q00537 whole entry): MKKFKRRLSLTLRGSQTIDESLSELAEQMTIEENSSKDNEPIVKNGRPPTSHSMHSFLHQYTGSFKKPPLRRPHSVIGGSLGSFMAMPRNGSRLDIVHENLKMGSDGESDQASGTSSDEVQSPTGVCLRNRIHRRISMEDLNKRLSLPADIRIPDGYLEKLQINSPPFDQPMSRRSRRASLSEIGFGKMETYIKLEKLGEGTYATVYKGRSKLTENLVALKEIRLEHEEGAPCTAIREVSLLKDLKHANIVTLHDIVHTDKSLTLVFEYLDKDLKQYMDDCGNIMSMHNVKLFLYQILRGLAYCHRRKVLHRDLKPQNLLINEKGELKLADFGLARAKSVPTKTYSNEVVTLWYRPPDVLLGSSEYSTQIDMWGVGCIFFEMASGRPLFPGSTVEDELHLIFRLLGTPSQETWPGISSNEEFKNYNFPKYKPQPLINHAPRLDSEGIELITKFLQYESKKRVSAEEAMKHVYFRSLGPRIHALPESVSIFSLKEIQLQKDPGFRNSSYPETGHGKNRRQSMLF

Take `CC(C)c1cc(-c2n[nH]c(=O)n2-c2ccc3c(ccn3C)c2)c(O)cc1O` [Ganetespib (STA9090)]: the remaining activity at 10 µM on 382 unique human kinases [1] (AMPK(A1/B1/G1), 10 uM) turned out to be 79.7%; at 382 unique human kinases [1] (AMPK(A1/B1/G2), 10 uM), 73.2%; at 382 unique human kinases [1] (AMPK(A1/B2/G1), 10 uM), 70.8%; on 382 unique human kinases [1] (setting [15]), 86.1%; at 382 unique human kinases [2] it was 86.5%; on 382 unique human kinases [3], 110%. Moreover, the remaining activity at 10 µM on 382 unique human kinases [4] was 110%; on 382 unique human kinases [5], 105%; on 382 unique human kinases [6] it was 73.6%.

Turning to `CC(C)c1cc(-c2n[nH]c(=O)n2-c2ccc3c(ccn3C)c2)c(O)cc1O` [Ganetespib], the remaining activity at 10 µM was 95% on 382 unique human kinases [7]; 91.1% on 382 unique human kinases [8]; 12.8% at 382 unique human kinases [9] (setting [16]); 94.8% on 382 unique human kinases [10]; 93.8% at 382 unique human kinases [11]; 3.59% on 382 unique human kinases [12]. Also, the remaining activity at 10 µM was found to be 65% at 382 unique human kinases [13] and 55.7% on 382 unique human kinases [14]. Moreover, on 382 unique human kinases [9] (compound 1 uM, read-out: % Enzyme Activity (relative to DMSO controls)), the remaining activity at 1 µM was found to be 45.5%.

Take `CCNC(=O)c1noc(-c2cc(C(C)C)c(O)cc2O)c1-c1ccc(CN2CCOCC2)cc1` [Luminespib (AUY-922)]: the “% Enzyme Activity (relative to DMSO controls)” value at 382 unique human kinases [1] (AMPK(A1/B1/G1), 10 uM) amounted to 99.40%; on 382 unique human kinases [1] (AMPK(A1/B1/G2), 10 uM), 104.49%; at 382 unique human kinases [1] (AMPK(A1/B2/G1), 10 uM) it was 96.58%; at 382 unique human kinases [1] (setting [15]) it was 118.21%; at 382 unique human kinases [2], 80.06%; at 382 unique human kinases [3] it was 103.13%. Besides, the “% Enzyme Activity (relative to DMSO controls)” value on 382 unique human kinases [4] amounted to 122.69%; at 382 unique human kinases [5], 106.26%; on 382 unique human kinases [6], 97.76%. Further, the remaining activity at 10 µM at 382 unique human kinases [1] (AMPK(A1/B1/G1), 10 uM) was 101%; on 382 unique human kinases [1] (AMPK(A1/B1/G2), 10 uM) it was 107%; on 382 unique human kinases [1] (AMPK(A1/B2/G1), 10 uM), 97.6%; on 382 unique human kinases [1] (setting [15]) it was 119%; at 382 unique human kinases [2] it was 80.7%; on 382 unique human kinases [3], 106%. The results for the remaining activity at 10 µM on 382 unique human kinases [4], on 382 unique human kinases [5] and at 382 unique human kinases [6] were 127%, 107% and 98.2%, respectively.

For the compound `CCNC(=O)c1noc(-c2cc(C(C)C)c(O)cc2O)c1-c1ccc(CN2CCOCC2)cc1` [Luminespib], the “% Enzyme Activity (relative to DMSO controls)” value on 382 unique human kinases [7] was 94.10%; on 382 unique human kinases [8] it was 102.76%; on 382 unique human kinases [9] (compound 10 uM), 49.59%; at 382 unique human kinases [10], 91.72%; at 382 unique human kinases [11], 93.01%; at 382 unique human kinases [12] it was 5.25%. Also, the “% Enzyme Activity (relative to DMSO controls)” value on 382 unique human kinases [13] turned out to be 41.81%; on 382 unique human kinases [14], 90.09%. Besides, the remaining activity at 10 µM turned out to be 96.1% on 382 unique human kinases [7]; 104% at 382 unique human kinases [8]; 52.3% at 382 unique human kinases [9] (setting [16]); 92.5% on 382 unique human kinases [10]; 95.1% at 382 unique human kinases [11]; 5.39% at 382 unique human kinases [12]. The figures for the remaining activity at 10 µM at 382 unique human kinases [13] and on 382 unique human kinases [14] were 43.2% and 90.3%, respectively.
